Measurements published in patent publication EP1044000B1, “COMBINATION THERAPY FOR THE TREATMENT OF AIDS” (MERCK & CO., INC., priority 1997, dated 1999).
Where two headings read alike, the source gives them in different places.

Legend:
[1] = biological target: CYPIIIA4 (Homo sapiens, UniProt P08684); assay: in vitro inhibition of CYPIIIA4; assay type: in vitro ADME
[2] = Pharmacokinetic study of Compound A in healthy human males (Example 10); assay type: in vivo; settings: male, plasma, po, suspension of sulfate salt; for Tmax: mean of 6 subjects; for Cmax / AUC: mean of 6 subjects (CV %); for concentration at 8 h: plasma 8 hours after dosing, read-out: C8 hrs; for concentration at 12 h: plasma 12 hours after dosing, read-out: C12 hrs
Method: A double-blind, single-rising dose, alternating two-panel, four-period, placebo-controlled study was conducted for Compound A in healthy adult males in the fasted state. Single doses of 20, 50, 100, 200, 400, 800 and 1200 mg of Compound A, or placebo, were administered as an oral suspension of the sulfate salt form of Compound A in sterile water. Each subject received increasing single oral doses of Compound A or placebo during each of the four treatment periods in alternate panels. Panel A dosage levels were 20, 100, 400 mg, and 400 mg with food. Panel B dosage levels were 50, 200, 800 and 1200 mg. For each period, 6 subjects received Compound A and 2 subjects received placebo as allocated by a randomized schedule. In Panel A, subjects who received 400 mg of Compound A also received 400 mg of Compound A with food. The safety of the subjects was monitored prior and subsequent to dosing by clinical adverse event reporting, measurement of vital signs, physical examinations, blood and urine laboratory safety tests, and ECGs. […]

[3] = Pharmacokinetic study of Compound A in combination with Indinavir with and without fasting (Example 12); assay type: in vivo; settings: male, human, plasma, 600 mg Compound A (tablets) + 666 mg IDV (Indinavir), n=7; for concentration at 8 h / concentration at 12 h / concentration at 24 h: oral; for concentration at 8 h: plasma 8 hours after dosing, read-out: C8 hrs; for concentration at 12 h: plasma 12 hours after dosing, read-out: C12 hrs; for concentration at 24 h: plasma 24 hours after dosing, read-out: C24 hrs; for Cmax / Tmax / AUC: po, single oral dose; for Cmax / Tmax: arithmetic mean; for AUC: arithmetic mean (CV %)
Method: All of the subjects received the regimen once in the fasted state and once with a high-fat breakfast. The two single-dose treatments (fasted, fed) were administered in randomized crossover fashion, separated by one week. For treatments with food a breakfast consisting of two eggs, two strips of bacon, toast with two pats of butter (2 x 12.5 g), 120 g of fried potatoes and 240 ml of whole milk were consumed in no more than 15 minutes, and the test medication was administered within 5 minutes after completion of the breakfast. […] All of the doses of Compound A were administered as the sulfate salt form of Compound A. All of the Compound A doses were tablets containing 200 mg of Compound A. Other ingredients in the tablets included microcrystalline cellulose (Avicel PH 101), mannitol SD 200, croscarmellose sodium, hydroxypropyl cellulose and magnesium stearate. The tablets were film coated with a suspension of hydroxypropyl methylcellulose, hydroxypropyl cellulose and titanium dioxide. The safety of the subjects was monitored prior and subsequent to dosing by clinical adverse event reporting, measurement of vital signs, physical examinations, blood and urine laboratory safety tests, and ECGs. Plasma concentrations of Compound A were determined predose and at 0.5, 1, 1.5, 2, 3, 4, 6, 8, 12, 16, 20, 24, 30, 36 and 48 hours following each single dose in each period, using a reverse-phase HPLC column switching method with fluorescence detection.

[4] = 50 mg, 50 mg single oral dose, fasted
[5] = 100 mg, 100 mg single oral dose, fasted
[6] = 200 mg, 200 mg single oral dose, fasted
[7] = 400 mg, 400 mg single oral dose, fasted
[8] = 400 mg, 400 mg single oral dose, fasted, CV not determinable
[9] = 400 mg, 400 mg w/food, single oral dose
[10] = 800 mg, 800 mg single oral dose, fasted
[11] = 800 mg, 800 mg single oral dose, fasted, mean (CV %)
[12] = 1200 mg, 1200 mg single oral dose, fasted
[13] = 1200 mg, 1200 mg single oral dose, fasted, mean (CV %)

Sequence of CYPIIIA4 (P08684 whole entry): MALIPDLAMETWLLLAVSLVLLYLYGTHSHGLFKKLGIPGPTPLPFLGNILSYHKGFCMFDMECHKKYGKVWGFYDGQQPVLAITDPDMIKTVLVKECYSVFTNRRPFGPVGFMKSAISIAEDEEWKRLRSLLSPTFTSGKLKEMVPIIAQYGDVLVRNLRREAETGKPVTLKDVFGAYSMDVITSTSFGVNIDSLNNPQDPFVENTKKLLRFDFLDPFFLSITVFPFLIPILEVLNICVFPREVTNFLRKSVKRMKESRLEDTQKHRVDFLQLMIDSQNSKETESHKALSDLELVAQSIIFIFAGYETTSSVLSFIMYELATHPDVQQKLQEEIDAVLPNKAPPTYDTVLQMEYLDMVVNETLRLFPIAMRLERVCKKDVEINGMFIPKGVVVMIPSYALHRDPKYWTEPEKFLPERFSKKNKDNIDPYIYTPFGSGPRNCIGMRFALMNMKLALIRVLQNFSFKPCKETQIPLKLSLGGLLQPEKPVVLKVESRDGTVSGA

IC50 [1]: 30 µM | Tmax [2, 4]: 0.6 h | Cmax [2, 4]: 12 nM | Tmax [2, 5]: 0.5 h | Cmax [2, 5]: 36 nM | Tmax [2, 6]: 0.7 h | AUC [2, 6]: 0.24 µM·h | Cmax [2, 6]: 85 nM | concentration at 8 h ([2]; 200 mg, 200 mg single oral dose, fasted, CV not determinable): 5 nM | Tmax [2, 7]: 1.8 h | AUC [2, 7]: 0.66 µM·h | Cmax [2, 7]: 166 nM | concentration at 8 h [2, 8]: 15 nM | concentration at 12 h [2, 8]: 6 nM | Tmax [2, 9]: 4 h | AUC [2, 9]: 0.8 µM·h | Cmax [2, 9]: 170 nM | concentration at 8 h ([2]; 400 mg, 400 mg w/food, single oral dose, mean (CV %)): 32 nM | concentration at 12 h ([2]; 400 mg, 400 mg w/food, single oral dose, CV not determinable): 7 nM | Tmax [2, 10]: 2.6 h | AUC [2, 10]: 3.09 µM·h | Cmax [2, 10]: 568 nM | concentration at 8 h [2, 11]: 126 nM | concentration at 12 h [2, 11]: 45 nM | Tmax [2, 12]: 2.1 h | AUC [2, 12]: 7.28 µM·h | Cmax [2, 12]: 1350 nM | concentration at 8 h [2, 13]: 338 nM | concentration at 12 h [2, 13]: 128 nM | concentration at 8 h ([3]; fasted): 583 nM | concentration at 12 h ([3]; fasted): 188 nM | concentration at 24 h ([3]; fasted): 37 nM | concentration at 8 h ([3]; fed (high-fat breakfast)): 1320 nM | concentration at 12 h ([3]; fed (high-fat breakfast)): 433 nM | concentration at 24 h ([3]; fed (high-fat breakfast)): 58 nM | Cmax ([3]; fasted): 2920 nM | Tmax ([3]; fasted): 2.6 h | AUC ([3]; fasted): 15.7 µM·h | Cmax ([3]; fed (high-fat breakfast)): 4230 nM | Tmax ([3]; fed (high-fat breakfast)): 3.7 h | AUC ([3]; fed (high-fat breakfast)): 25.3 µM·h
Structure (SMILES): CC(C)(C)NC(=O)[C@@H]1CN(Cc2cc3ccccc3o2)CCN1C[C@@H](O)C[C@@H](Cc1ccccc1)C(=O)N[C@H]1c2ccccc2C[C@H]1O [Compound A, N-(2(R)-hydroxy-1(S)-indanyl)-2(R)-phenylmethyl-4-(S)-hydroxy-5-(1-(4-(2-benzo[b]furanylmethyl)-2(S)-N'-(t-butylcarboxamido)-piperazinyl))-pentaneamide]
